Data taken from patent publication US20250276942A1, “UREASE INHIBITOR FORMULATION FOR USE IN UREA GRANULATION PROCESS” (BASF SE, priority 2021, published 2025).

Experiments:
Flashpoint of materials = assay type: physicochemical
Method: In a preferred embodiment A2 of the first aspect, the solvent (B) has a flashpoint (determined according to ISO 2719:2016) of more than 130° C., preferably more than 135° C., and in particular more than 140° C.

[1] = NxPT recovery on closed storage of urea treated in the melt with urease inhibitor formulations in different solvents (Example 2); assay type: physicochemical; details: 550 ppm NxPT added to urea melt; closed storage at 30° C. and 40° C.; 2 and 6 months; HPLC DIN_EN_16651
Method: 900 g urea+20 mL water were added to a metal pan and heated to 135° C.+1−5° C. under continuous stirring using an overhead stirrer. When all urea was melted, the respective amount of urease inhibitor formulation was added to the urea melt to achieve an NxPT (i.e. NBPT and NPPT) concentration of 550 ppm in urea. After 1 minute of mixing, the molten urea was poured onto an aluminum tray and let cool down at room temperature for 30 min. Afterwards, the urea was broken up in pieces of 1-6 mm and stored in closed polyethylene bottles at 30° C. and 40° C. After 2 and 6 months samples were taken and analyzed for active ingredient concentration. […] The resulting NxPT concentrations from both measurements were averaged.

[2] = NxPT recovery on closed storage at 30° C. of urea coated with amine-containing formulations (Example 5); assay type: physicochemical
Method: 3 kg of urea fertilizer granules were added to an ERWEKA mixer (dimensions mix drum: 50 cm diameter, 20 cm high). The mixer was turned on (27 RPM) and the respective amount of urease inhibitor formulation (formulations of NBPT and NPPT in DEG with additional amine were prepared as shown in Table 3 below) was sprayed onto the urea using a syringe to achieve a total NxPT concentration of 550 ppm (137.5 ppm NPPT and 412.5 ppm NBPT) on urea. The fertilizer/urease inhibitor mixture was mixed for 5 minutes. Afterwards, the treated urea was stored in closed polyethylene bottles at 30° C. Samples were taken after 1, 2, 3 and 6 months and analyzed for active ingredient concentration. […] The resulting NxPT concentrations from both measurements were averaged.

[3] = granulated urea, 0.055 wt.-% NBPT+NPPT; closed storage 20° C., 30° C., 40° C., up to 12 months; compared to samples containing PEI
Method: In a test plant, urea was granulated in a fluidized bed granulator having a cylindrical fluidized bed of diameter 40 cm at a temperature of about 108° C. […] The fluidization air flowed at a superficial flow rate of about 2 m/s into the fluidized bed. An overflow was mounted 10 cm above the baseplate at the side wall of the bed. A defined amount (about 30 kg) of urea particles or urea granules having a narrow size distribution was then introduced into the granulator column as seeds for the granulation. The bed with the seeds (about 50 cm deep) was fluidized with hot air at a temperature of about 100° C., and the addition of 96 to 97% by weight urea solution at a temperature of about 135° C. was commenced as soon as the bed had reached the temperature of about 108° C. that was envisaged for the run. From a reservoir tank, the urea solution having a water content of 3-4% by weight was then introduced into the fluidized bed granulator at a rate of 300 kg/h via a spray nozzle that was operated at a temperature of about 140° C. with air, supplied at a rate of 240 kg/h. […]
Samples of the resulting urea granules were stored in closed polyethylene bottles at 20° C., 30° C. and 40° C. Samples were taken after 0, 1, 2, 3, 4, 6, and 12 months and analyzed for active ingredient concentration. From each sample 2×15 g was dissolved in 100 mL water and analyzed using HPLC method DIN_EN_16651. […]

| SMILES | Flashpoint (Flashpoint of materials) [°C] | further results |
| --- | --- | --- |
| CC(O)C(=O)N(C)C (stereo not shown) [Agnique AMD 3L, N,N-Dimethyl lactamide] | 103 |  |
| OCCOCCO [DEG, Diethylene glycol] | 142 | stabilizing properties on NxPT during storage of the treated urea, among the tested glycols [1]: best stabilizing properties |
| CC(O)CN(CCO)CCO (stereo not shown) [DEIPA, Diethanol isopropanol amine] | 191 | performance in urease inhibitor formulations applied as coating to urea ([2]; 550 ppm NxPT sprayed onto urea granules, closed storage 30° C., 1, 2, 3 and 6 months): same performance; stabilizing effect ([2]; amine in DEG formulation of NBPT and NPPT on urea): stabilizing effect; storage stability in urea [3]: higher storage stability |

The next lines start with results.

| Flashpoint (Flashpoint of materials) [°C] | SMILES | further results |
| --- | --- | --- |
| 99 | CC(O)CO (stereo not shown) [PG, Propylene glycol] |  |
| 95 | C[S+](C)[O-] [DMSO, Dimehtyl sulfoxide] | ranking of the stabilizing properties of the tested solvents [1]: DEG>DPG>PG>N,N-Agnique AMD 3L>DMSO |
